According to ChEMBL document CHEMBL1268977, “Efficient synthesis, spectral analysis and antimicrobial studies of nitrogen and sulfur containing spiro heterocycles from 2,4-diaryl-3-azabicyclo[3.3.1]nonan-9-ones” (2010):
Converted amounts (≈) assume the structure as drawn. The source made the active and inactive calls. No cut-off for these calls is given here.

Legend:
[1] = system: Aspergillus niger; test: Antifungal activity against Aspergillus niger ATCC 635 at 200 ug/ml after 72 to 96 hrs by serial dilution method; format: functional, organism-based
[2] = system: Rhizopus; test: Antifungal activity against Rhizopus species ATCC 2842 after 72 to 96 hrs by serial dilution method; format: functional
[3] = system: Cryptococcus neoformans; test: Antifungal activity against Cryptococcus neoformans ATCC 3235 after 72 to 96 hrs by serial dilution method; format: functional
[4] = system: Bacillus subtilis; test: Antibacterial activity against Bacillus subtilis ATCC 530 after 24 hrs by serial dilution method; format: functional; conditions: ATCC 530, 24 h
[5] = system: Klebsiella pneumoniae; test: Antibacterial activity against Klebsiella pneumoniae ATCC 16425 after 24 hrs by serial dilution method; format: functional; conditions: ATCC 16425, 24 h
[6] = system: Staphylococcus aureus; test: Antibacterial activity against Staphylococcus aureus ATCC 25930 after 24 hrs by serial dilution method; format: functional; conditions: ATCC 25930, 24 h
[7] = system: Aspergillus flavus; test: Antifungal activity against Aspergillus flavus ATCC 525 after 72 to 96 hrs by serial dilution method; format: functional
[8] = system: Candida albicans; test: Antifungal activity against Candida albicans ATCC 3430 after 72 to 96 hrs by serial dilution method; format: functional
[9] = system: Salmonella typhi; test: Antibacterial activity against Salmonella typhi ATCC 25021 after 24 hrs by serial dilution method; format: functional, Salmonella enterica subsp. enterica serovar Typhi; conditions: Salmonella enterica, ATCC 25021, 24 h
[10] = system: Escherichia coli; test: Antibacterial activity against Escherichia coli ATCC 26032 after 24 hrs by serial dilution method; format: functional; conditions: ATCC 26032, 24 h
[11] = system: Aspergillus niger; test: Antifungal activity against Aspergillus niger ATCC 635 after 72 to 96 hrs by serial dilution method; format: functional
[12] = system: Bacillus subtilis; test: Antibacterial activity against Bacillus subtilis ATCC 530 at 200 ug/ml after 24 hrs by serial dilution method; format: functional, organism-based

SMILES	inhibition [1]	MIC [2]	MIC [3]	MIC [4]	MIC [5]	MIC [6]	MIC [7]	MIC [8]	MIC [9]	MIC [10]	MIC [11]	inhibition [12]
CC(=O)NC1=NN(C(C)=O)C2(S1)C1CCCC2C(c2ccccc2Cl)NC1c1ccccc1Cl (stereo not given)	inactive	12.5 µg/mL (≈ 24.2 µM)	50 µg/mL (≈ 96.6 µM)	12.5 µg/mL (≈ 24.2 µM)	25 µg/mL (≈ 48.3 µM)	12.5 µg/mL (≈ 24.2 µM)	12.5 µg/mL (≈ 24.2 µM)	12.5 µg/mL (≈ 24.2 µM)	12.5 µg/mL (≈ 24.2 µM)	12.5 µg/mL (≈ 24.2 µM)		
CCC(=O)NC1=NN(C(=O)CC)C2(S1)C1CCCC2C(c2ccccc2Cl)NC1c1ccccc1Cl (stereo not given)		100 µg/mL (≈ 183 µM)	50 µg/mL (≈ 91.7 µM)	12.5 µg/mL (≈ 22.9 µM)	25 µg/mL (≈ 45.8 µM)	50 µg/mL (≈ 91.7 µM)	50 µg/mL (≈ 91.7 µM)	12.5 µg/mL (≈ 22.9 µM)	25 µg/mL (≈ 45.8 µM)	50 µg/mL (≈ 91.7 µM)	12.5 µg/mL (≈ 22.9 µM)	
CC(=O)NC1=NN(C(C)=O)C2(S1)C1CCCC2C(c2cccc(F)c2)NC1c1cccc(F)c1 (stereo not given)		12.5 µg/mL (≈ 25.8 µM)	25 µg/mL (≈ 51.6 µM)	25 µg/mL (≈ 51.6 µM)	6.25 µg/mL (≈ 12.9 µM)	50 µg/mL (≈ 103 µM)	6.25 µg/mL (≈ 12.9 µM)	25 µg/mL (≈ 51.6 µM)	6.25 µg/mL (≈ 12.9 µM)	6.25 µg/mL (≈ 12.9 µM)	25 µg/mL (≈ 51.6 µM)	
CC(=O)NC1=NN(C(C)=O)C2(S1)C1CCCC2C(c2ccc(F)cc2)NC1c1ccc(F)cc1 (stereo not given)		50 µg/mL (≈ 103 µM)	12.5 µg/mL (≈ 25.8 µM)	6.25 µg/mL (≈ 12.9 µM)	12.5 µg/mL (≈ 25.8 µM)	50 µg/mL (≈ 103 µM)	6.25 µg/mL (≈ 12.9 µM)	6.25 µg/mL (≈ 12.9 µM)	6.25 µg/mL (≈ 12.9 µM)	12.5 µg/mL (≈ 25.8 µM)	6.25 µg/mL (≈ 12.9 µM)	
CN[C@@H]1[C@H](O[C@H]2[C@H](O[C@H]3[C@H](O)[C@@H](O)[C@H](N=C(N)N)[C@@H](O)[C@@H]3N=C(N)N)O[C@@H](C)[C@]2(O)C=O)O[C@@H](CO)[C@H](O)[C@H]1O [STREPTOMYCIN]				12.5 µg/mL (≈ 21.5 µM)	25 µg/mL (≈ 43 µM)	50 µg/mL (≈ 86 µM)			50 µg/mL (≈ 86 µM)	12.5 µg/mL (≈ 21.5 µM)		
COc1ccc(C2C3CCCC(C(c4ccc(OC)cc4)N2C(C)=O)C32SC(NC(C)=O)=NN2C(C)=O)cc1 (stereo not given)	inactive	100 µg/mL (≈ 182 µM)	25 µg/mL (≈ 45.4 µM)	50 µg/mL (≈ 90.8 µM)	25 µg/mL (≈ 45.4 µM)	25 µg/mL (≈ 45.4 µM)	12.5 µg/mL (≈ 22.7 µM)	25 µg/mL (≈ 45.4 µM)	50 µg/mL (≈ 90.8 µM)	50 µg/mL (≈ 90.8 µM)		
C[C@@H]1[C@H](O)[C@@H](C)/C=C/C=C/C=C/C=C/C=C/C=C/C=C/[C@H](O[C@@H]2O[C@H](C)[C@@H](O)[C@H](N)[C@@H]2O)C[C@@H]2O[C@](O)(C[C@@H](O)C[C@@H](O)[C@H](O)CC[C@@H](O)C[C@@H](O)CC(=O)O[C@H]1C)C[C@H](O)[C@H]2C(=O)O [AMPHOTERICIN B]		25 µg/mL (≈ 27.1 µM)	25 µg/mL (≈ 27.1 µM)				50 µg/mL (≈ 54.1 µM)	25 µg/mL (≈ 27.1 µM)			50 µg/mL (≈ 54.1 µM)	
CCC(=O)NC1=NN(C(=O)CC)C2(S1)C1CCCC2C(c2ccc(OC)cc2)N(C(=O)CC)C1c1ccc(OC)cc1 (stereo not given)		100 µg/mL (≈ 169 µM)	50 µg/mL (≈ 84.4 µM)		25 µg/mL (≈ 42.2 µM)	25 µg/mL (≈ 42.2 µM)	100 µg/mL (≈ 169 µM)	25 µg/mL (≈ 42.2 µM)	25 µg/mL (≈ 42.2 µM)	50 µg/mL (≈ 84.4 µM)	25 µg/mL (≈ 42.2 µM)	inactive
CCC(=O)NC1=NN(C(=O)CC)C2(S1)C1CCCC2C(c2ccc(F)cc2)NC1c1ccc(F)cc1 (stereo not given)		6.25 µg/mL (≈ 12.2 µM)	25 µg/mL (≈ 48.8 µM)	6.25 µg/mL (≈ 12.2 µM)	25 µg/mL (≈ 48.8 µM)	25 µg/mL (≈ 48.8 µM)	6.25 µg/mL (≈ 12.2 µM)	6.25 µg/mL (≈ 12.2 µM)	6.25 µg/mL (≈ 12.2 µM)	12.5 µg/mL (≈ 24.4 µM)	12.5 µg/mL (≈ 24.4 µM)	
CCC(=O)NC1=NN(C(=O)CC)C2(S1)C1CCCC2C(c2ccc(Cl)cc2)NC1c1ccc(Cl)cc1 (stereo not given)		12.5 µg/mL (≈ 22.9 µM)	25 µg/mL (≈ 45.8 µM)	12.5 µg/mL (≈ 22.9 µM)	100 µg/mL (≈ 183 µM)	200 µg/mL (≈ 367 µM)	50 µg/mL (≈ 91.7 µM)	12.5 µg/mL (≈ 22.9 µM)	12.5 µg/mL (≈ 22.9 µM)	25 µg/mL (≈ 45.8 µM)	12.5 µg/mL (≈ 22.9 µM)	
CCC(=O)NC1=NN(C(=O)CC)C2(S1)C1CCCC2C(c2ccccc2)N(C(=O)CC)C1c1ccccc1 (stereo not given)		12.5 µg/mL (≈ 23.5 µM)	6.25 µg/mL (≈ 11.7 µM)	50 µg/mL (≈ 93.9 µM)	50 µg/mL (≈ 93.9 µM)	12.5 µg/mL (≈ 23.5 µM)	12.5 µg/mL (≈ 23.5 µM)	50 µg/mL (≈ 93.9 µM)	25 µg/mL (≈ 46.9 µM)	50 µg/mL (≈ 93.9 µM)	50 µg/mL (≈ 93.9 µM)	
CCC(=O)N(C1=NN(C(=O)CC)C2(S1)C1CCCC2C(c2ccccc2Cl)NC1c1ccccc1Cl)c1ccccc1 (stereo not given)		100 µg/mL (≈ 161 µM)	200 µg/mL (≈ 322 µM)	50 µg/mL (≈ 80.4 µM)	25 µg/mL (≈ 40.2 µM)	6.25 µg/mL (≈ 10.1 µM)	50 µg/mL (≈ 80.4 µM)	50 µg/mL (≈ 80.4 µM)	25 µg/mL (≈ 40.2 µM)	50 µg/mL (≈ 80.4 µM)	50 µg/mL (≈ 80.4 µM)	
CC(=O)NC1=NN(C(C)=O)C2(S1)C1CCCC2C(c2ccccc2)N(C(C)=O)C1c1ccccc1 (stereo not given)		50 µg/mL (≈ 102 µM)	50 µg/mL (≈ 102 µM)	100 µg/mL (≈ 204 µM)	100 µg/mL (≈ 204 µM)	12.5 µg/mL (≈ 25.5 µM)	100 µg/mL (≈ 204 µM)	100 µg/mL (≈ 204 µM)	25 µg/mL (≈ 51 µM)	50 µg/mL (≈ 102 µM)	25 µg/mL (≈ 51 µM)	
CC(=O)NC1=NN(C(C)=O)C2(S1)C1CCCC2C(c2ccc(Cl)cc2)NC1c1ccc(Cl)cc1 (stereo not given)		200 µg/mL (≈ 386 µM)	6.25 µg/mL (≈ 12.1 µM)		50 µg/mL (≈ 96.6 µM)	25 µg/mL (≈ 48.3 µM)	50 µg/mL (≈ 96.6 µM)	25 µg/mL (≈ 48.3 µM)	25 µg/mL (≈ 48.3 µM)	12.5 µg/mL (≈ 24.2 µM)	25 µg/mL (≈ 48.3 µM)	inactive
CCC(=O)NC1=NN(C(=O)CC)C2(S1)C1CCCC2C(c2cccc(F)c2)NC1c1cccc(F)c1 (stereo not given)		25 µg/mL (≈ 48.8 µM)	25 µg/mL (≈ 48.8 µM)	6.25 µg/mL (≈ 12.2 µM)	50 µg/mL (≈ 97.5 µM)	100 µg/mL (≈ 195 µM)	50 µg/mL (≈ 97.5 µM)	25 µg/mL (≈ 48.8 µM)	6.25 µg/mL (≈ 12.2 µM)	6.25 µg/mL (≈ 12.2 µM)	12.5 µg/mL (≈ 24.4 µM)	
CC(=O)NC1=NN(C(C)=O)C2(S1)C1CCCC2C(c2ccc(C)cc2)NC1c1ccc(C)cc1 (stereo not given)		25 µg/mL (≈ 52.4 µM)	50 µg/mL (≈ 105 µM)	12.5 µg/mL (≈ 26.2 µM)	12.5 µg/mL (≈ 26.2 µM)	25 µg/mL (≈ 52.4 µM)	12.5 µg/mL (≈ 26.2 µM)	25 µg/mL (≈ 52.4 µM)	100 µg/mL (≈ 210 µM)	100 µg/mL (≈ 210 µM)	50 µg/mL (≈ 105 µM)	
CCC(=O)NC1=NN(C(=O)CC)C2(S1)C1CCCC2C(c2ccc(C)cc2)NC1c1ccc(C)cc1 (stereo not given)		50 µg/mL (≈ 99.1 µM)	25 µg/mL (≈ 49.5 µM)	100 µg/mL (≈ 198 µM)	25 µg/mL (≈ 49.5 µM)	50 µg/mL (≈ 99.1 µM)	200 µg/mL (≈ 396 µM)	25 µg/mL (≈ 49.5 µM)	50 µg/mL (≈ 99.1 µM)	25 µg/mL (≈ 49.5 µM)	100 µg/mL (≈ 198 µM)	
CC(=O)N(C1=NN(C(C)=O)C2(S1)C1CCCC2C(c2ccccc2Cl)NC1c1ccccc1Cl)c1ccccc1 (stereo not given)		25 µg/mL (≈ 42.1 µM)	50 µg/mL (≈ 84.2 µM)	12.5 µg/mL (≈ 21.1 µM)	100 µg/mL (≈ 168 µM)	25 µg/mL (≈ 42.1 µM)	100 µg/mL (≈ 168 µM)	6.25 µg/mL (≈ 10.5 µM)	100 µg/mL (≈ 168 µM)	50 µg/mL (≈ 84.2 µM)	12.5 µg/mL (≈ 21.1 µM)	
CC(=O)N(C1=NN(C(C)=O)C2(S1)C1CCCC2C(c2ccc(Cl)cc2)N(C(C)=O)C1c1ccc(Cl)cc1)c1ccccc1 (stereo not given)	inactive	12.5 µg/mL (≈ 19.7 µM)	50 µg/mL (≈ 78.7 µM)	25 µg/mL (≈ 39.3 µM)	50 µg/mL (≈ 78.7 µM)	12.5 µg/mL (≈ 19.7 µM)	200 µg/mL (≈ 315 µM)	100 µg/mL (≈ 157 µM)	12.5 µg/mL (≈ 19.7 µM)	25 µg/mL (≈ 39.3 µM)		
